{"source": "patent US8153614B2", "about": "“Treatment of osteoarthritis” (Glycoscience Laboratories, Inc., priority 2006, dated 2012)", "test_system": "C57BL/6 mice, which spontaneously develop osteoarthritis", "experiment": "Macroscopic examination (India ink) of knee joint cartilage in the spontaneous osteoarthritis mouse model", "format": "in vivo", "conditions": "oral HA4 100 mg/10 ml/kg once daily for 2 weeks", "method": "In this example, HA4 was administered to C57BL/6 mice, which spontaneously develop osteoarthritis, to examine effects thereof.\n20-week-old male C57BL/6 mice were purchased from Charles River Laboratories Japan, Inc., and animals which developed osteoarthritis were used. The animals were divided into the negative control (treated with physiological saline) group and the oral HA4 (100 mg/10 ml/kg) treated group.\nIn this example, 10 mg/ml HA4 was prepared. Specifically, HA4 was prepared by the method of Tawada et al. (Tawada A, Masa T, Oonuki Y, Watanabe A, Matsuzaki Y, Asari A. Large-scale preparation, purification, and characterization of hyaluronan oligosaccharides from 4-mers to 52-mers. Glycobiology. 2002; 12(7): 421-6.), and the concentration was adjusted with physiological saline. Furthermore, physiological saline was prepared as a control.\nIn this example, the test substance or physiological saline was orally given to mice which developed osteoarthritis using an oral sonde once daily for 2 weeks.\nOsteoarthritis curing effects were determined macroscopically. […] For this evaluation method, refer to Chang D G, Iverson E P, Schinagl R M, Sonoda M, Amiel D, Coutts R D, Sah R L. Quantitation and localization of cartilage degeneration following the induction of osteoarthritis in the rabbit knee. […]", "data": [{"substance": "tetrasaccharide hyaluronan [HA4]", "values": [{"measurement": "Therapeutic effects against osteoarthritis", "value": "therapeutic effects against osteoarthritis were confirmed"}, {"measurement": "MEAN score (remaining India ink)", "setting": "saline control mean 4.8", "value": "MEAN 1.4"}]}]}
